Values quoted from earlier work in patent publication US4127530A, “Novel heneicosapeptides, intermediates therefor and pharmaceutical compositions and methods employing said heneicosapeptides” (priority 1977, dated 1978).

What was measured:
[1] = test system: partially purified brain opiate receptor sites; settings: for opioid activity in binding to partially purified brain opiate receptor sites: fragments isolated from the pituitary
[2] = injected directly into the brain of the rat

Substance	opioid activity in binding to partially purified brain opiate receptor sites [1]	binding to partially purified brain opiate receptor sites ([1]; natural peptide)	analgesic activity [2]
α-endorphin	potent opioid activity		
β-endorphin: β-lipotropin fragment 61-91	potent opioid activity		
γ-endorphin	potent opioid activity		
H-Tyr-Gly-Gly-Phe-Met-OH [methionine enkephalin]		binds stereo-specifically	weak analgesic agent of short duration
